The nature of data set [1]: Stability in rat liver microsomes. Format: in vitro ADME. The conditions noted are these: rat liver microsomes 0.5 mg protein/mL, 1 μM test substance, β-NADPH 1 mM, 37° C.; for half-life at 1 μM: read-out: Rat t1/2. On the procedure: (§1) Experimental Example 2: Evaluation of Stability of Compounds Disclosed Herein in Liver Microsomes
(§2) Composition of experimental incubation system:
(§3) An appropriate amount of the compound was precisely weighed out and dissolved in DMSO to prepare a 10.0 mM stock solution. The 10.0 mM stock solution was diluted with DMSO to 1.0 mM, and then diluted with phosphate buffer (containing 3 mM MgCl2) to prepare a 10 μM test substance working solution for later use (DMSO content in the reaction system: 0.1%).
(§4) An appropriate amount of β-NADPH was precisely weighed out and then prepared into a 5 mM β-NADPH working solution using phosphate buffer (containing 3 mM MgCl2) for later use.
(§5) (1) The liver microsomes (20 mg protein/mL) were taken out from a −80° C. freezer and pre-incubated on a 37° C. water bath thermostatic oscillator for 3 min to thaw for later use.
(§6) (2) A mixed solution of the incubation system (without β-NADPH) was prepared according to “composition of experimental incubation system” described above, and pre-incubated on a 37° C. water bath thermostatic oscillator for 2 min.
(§7) (3) Control group (without β-NADPH): 10 μL of phosphate buffer (containing 3 mM MgCl2) and 40 μL of the mixed solution of the incubation system in step (2) were taken and mixed, and the mixture was vortexed for 30 s and mixed well, resulting in a total reaction volume of 50 μL; the sample was duplicated. The mixture was placed on a 37° C. water bath thermostatic oscillator for incubation, and timing was started, with termination time points set at 0 min and 60 min.
(§8) (4) Sample group: 10 μL of the β-NADPH solution (5 mM) and 40 μL of the mixed solution in step (2) were taken and mixed, resulting in a total reaction volume of 50 μL; the mixture was vortexed for 30 s and mixed well; the sample was duplicated. The mixture was placed on a 37° C. water bath thermostatic oscillator for incubation, and timing was started, with termination time points set at 0 min, 5 min, 10 min, 20 min, 30 min, and 60 min.
(§9) (5) The mixture was vortexed for 5 min and then centrifuged at 4000 rpm for 10 min.
(§10) (6) 50 μL of the supernatant was taken and added to 150 μL of water, and the resulting mixture was vortexed and mixed well before LC/MS/MS analysis.
(§11) The half-life (t1/2) and clearance rate (CL) were calculated using the following first-order kinetic formula
(§12) Notes: k denotes the slope of the logarithm of the remaining amount of a compound vs. time, and Vd denotes apparent volume of distribution.

Data set [2] in a line: Pharmacokinetic study in male SD rats. The conditions noted are these: rat, plasma. The format is in vivo. On the procedure: Experimental Example 4: Pharmacokinetic Study of Compounds in Male SD Rats
The compounds were prepared into solutions using a mixed vehicle composed of 5% dimethyl sulfoxide, 20% (30% solutol), and 75% normal saline. The compound solutions were intragastrically administered to male SD rats at a dose of 5.0 mg/kg, and the blood collection time points were: 15 min, 30 min, 1 h, 2 h, 4 h, 6 h, 8 h, 10 h, and 24 h.
The compounds were prepared into solutions using a mixed vehicle composed of 5% dimethyl sulfoxide, 20% (30% solutol), and 75% normal saline. The compound solutions were intravenously injected into male SD rats at a dose of 1.0 mg/kg, and the blood collection time points were: 5 min, 15 min, 30 min, 1 h, 2 h, 4h, 6 h, 8h, 10 h, and 24 h.
Intravenous catheterization was performed on the animals the day before the administration. After the administration, blood samples of about 300 μL were collected from the jugular vein and placed into anticoagulation tubes containing EDTA-K2. The blood samples were centrifuged at 5000 rpm at 4° C. for 10 min to give plasma samples. The plasma samples were prepared within 30 min after blood collection. The plasma samples were stored in a −80° C. freezer before testing.

Data set [3] is described as follows: Stability in canine liver microsomes. Format: in vitro ADME. To be noted: dog, canine liver microsomes 0.5 mg protein/mL, 1 μM test substance, β-NADPH 1 mM, 37° C.; for half-life at 1 μM: read-out: Canine t1/2. The procedure:
as §1, §2, §3, §4, §5, §6, §7, §8, §9, §10, §11, §12

Another data set addresses T1, THP-1 cell NLRP3 (Homo sapiens, UniProt Q96P20).
T1 construct: endogenous in cells; host or cells: THP-1 cells, PMA-differentiated, stimulated with LPS and nigericin
The data set can be described thus: Inhibitory activity against cell NLRP3 inflammasomes in THP-1 cells (LPS + nigericin, ELISA of supernatant). The conditions noted are these: PMA-differentiated THP-1 cells, LPS 500 ng/mL 3 h, compound 1 h, nigericin 30 min; human IL-10 (so in the source) in supernatant by ELISA. Format: cell-based. The method in brief: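 PMA-differentiated (10 ng/mL, 16 h) THP-1 cells primed with 500 ng/mL LPS for 3 h in serum-free medium, then compound for 1 h (DMSO stock diluted 1:1000). Nigericin added for 30 min at 37 °C; IL-1β (printed as IL-10) in supernatant measured by ELISA.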

A short description of data set [4]: Pharmacokinetic study in mice. The format is in vivo, female C57BL/6J mice. To be noted: female, C57BL/6J, mouse, plasma. On the procedure: The compounds were prepared into solutions using a mixed vehicle composed of 5% dimethyl sulfoxide, 20% (30% solutol), and 75% normal saline. The compound solutions were intragastrically administered to female C57BL/6J mice at a dose of 10 mg/kg, and the blood collection time points were: 15 min, 30 min, 1 h, 2 h, 4 h, 6 h, 8 h, and 24 h.
The compounds were prepared into solutions using a mixed vehicle composed of 5% dimethyl sulfoxide, 20% (30% solutol), and 75% normal saline. The compound solutions were intravenously injected into female C57BL/6J mice at a dose of 5 mg/kg, and the blood collection time points were: 5 min, 15 min, 30 min, 1 h, 2 h, 4 h, 6 h, 8 h, and 24 h.
The samples to be tested were taken out from a −80° C. freezer, naturally thawed at room temperature, and then vortexed for 5 min.
Plasma samples of 10 μL from different individuals were accurately pipetted into 1.5 mL centrifuge tubes.
900 μL of a 100 ng/mL internal standard working solution (a solution of tolbutamide in acetonitrile) was added, and the mixture was well mixed.
After 5 min of vortexing, centrifugation was performed at 12,000 rpm for 5 min.
50 μL of the supernatant was accurately pipetted into a 96-well plate to which water was added in advance at 150 μL/well.
After 5 min of vortexing, LC-MS/MS analysis was performed.
The results of the test substance concentrations were output by Analyst 1.6.3 of AB Sciex.
Parameters such as mean, standard deviation, and coefficient of variation (excluding those output directly by Analyst 1.6.3) were calculated using Microsoft Excel. PK parameters were calculated using WinNonlin Phenoix 8.2 software NCA (Tmax was a median).

T1 sequence (Q96P20 whole entry): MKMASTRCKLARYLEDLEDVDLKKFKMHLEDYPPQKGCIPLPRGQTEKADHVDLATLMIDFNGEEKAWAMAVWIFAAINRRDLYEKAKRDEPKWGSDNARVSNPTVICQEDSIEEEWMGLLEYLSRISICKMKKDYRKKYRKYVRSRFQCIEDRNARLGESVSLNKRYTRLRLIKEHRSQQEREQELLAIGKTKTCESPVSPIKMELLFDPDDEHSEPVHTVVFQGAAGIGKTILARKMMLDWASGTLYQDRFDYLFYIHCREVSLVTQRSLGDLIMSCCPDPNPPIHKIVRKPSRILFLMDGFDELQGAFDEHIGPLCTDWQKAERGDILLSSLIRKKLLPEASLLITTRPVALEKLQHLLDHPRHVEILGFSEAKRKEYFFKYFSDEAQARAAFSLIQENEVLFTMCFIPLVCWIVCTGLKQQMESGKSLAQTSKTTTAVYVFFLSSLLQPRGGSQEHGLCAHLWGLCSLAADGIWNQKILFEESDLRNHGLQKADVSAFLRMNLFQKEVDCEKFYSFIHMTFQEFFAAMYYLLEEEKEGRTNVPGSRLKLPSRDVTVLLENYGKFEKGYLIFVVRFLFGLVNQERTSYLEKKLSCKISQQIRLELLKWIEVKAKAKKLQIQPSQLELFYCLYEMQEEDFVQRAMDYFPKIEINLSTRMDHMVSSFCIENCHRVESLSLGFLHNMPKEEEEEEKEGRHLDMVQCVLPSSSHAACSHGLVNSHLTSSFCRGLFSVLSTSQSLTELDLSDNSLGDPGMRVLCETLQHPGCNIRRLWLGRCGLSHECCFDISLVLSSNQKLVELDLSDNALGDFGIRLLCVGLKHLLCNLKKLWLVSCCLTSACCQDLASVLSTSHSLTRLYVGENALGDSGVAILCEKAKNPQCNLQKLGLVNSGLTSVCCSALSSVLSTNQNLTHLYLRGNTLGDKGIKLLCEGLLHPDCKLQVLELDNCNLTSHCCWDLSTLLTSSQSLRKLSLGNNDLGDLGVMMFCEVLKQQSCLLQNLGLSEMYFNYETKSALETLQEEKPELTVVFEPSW

In the case of `C#Cc1ccc(-c2nnc(N[C@@H]3CCCN(CCO)C3)c(=O)n2C)c(O)c1` [Compound 42, (R)-3-(4-ethynyl-2-hydroxyphenyl)-6-((1-(2-hydroxyethyl)piperidin-3-yl)amino)-4-methyl-1,2,4-triazin-5(4H)-one], the figures for the intrinsic metabolic clearance (microsomal CLint) at 1 μM in data set [1] and in data set [3] were 4.2 µL/min/mg and 1.2 µL/min/mg, respectively. Besides, the half-life at 1 μM turned out to be 5.5 h in data set [1] and 19.2 h in data set [3]. Further, the AUC(0-t) in data set [2] (iv 1 mg/kg, read-out: AUClast iv (0-24 h)) came to 2490 ng·h/mL; in data set [2] (po 5 mg/kg, read-out: AUClast po (0-24 h)) it was 9720 ng·h/mL. For the same molecule, in data set [2] (iv 1 mg/kg, read-out: Cl—obs iv (clearance rate) (converted)), the clearance was 6.65 mL/min/kg. Moreover, the Vd in data set [2] (iv 1 mg/kg, read-out: Vss iv (distribution volume)) is 0.694 L/kg. Besides, the half-life in data set [2] (iv 1 mg/kg, read-out: tz1/2 iv (terminal half-life) (converted)) was 1.55 h; in data set [2] (po 5 mg/kg, read-out: tz1/2 po (terminal half-life) (converted)) it was 3.99 h. Moreover, the bioavailability in data set [2] (po 5 mg/kg vs iv 1 mg/kg, read-out: F% (absolute bioavailability)) is 77.8%. For the same molecule, the Tmax in data set [2] (po 5 mg/kg, median, read-out: Tmax po (time to peak plasma concentration)) came out at 1 h. In addition, the Cmax in data set [2] (po 5 mg/kg, read-out: Cmax po (peak concentration)) amounted to 2490 ng/mL. Also, at THP-1 cell NLRP3, the IC50 was found to be 4.6 nM.
Consider `C#Cc1ccc(-c2nnc(N[C@@H]3CCCN(CCO)C3)nc2C2CC2)c(O)c1` [Compound 100, (R)-2-(5-cyclopropyl-3-((1-(2-hydroxyethyl)piperidin-3-yl)amino)-1,2,4-triazin-6-yl)-5-ethynylphenol], for which the microsomal CLint at 1 μM was determined as 8.4 µL/min/mg in data set [1] and 2.8 µL/min/mg in data set [3]. For the same molecule, the half-life at 1 μM was 2.75 h in data set [1] and 8.25 h in data set [3]. Moreover, the AUC(0-t) in data set [4] (iv 5 mg/kg, read-out: AUClast iv (0-24 h)) worked out at 4460 ng·h/mL; in data set [4] (po 10 mg/kg, read-out: AUClast po (0-24 h)), 6280 ng·h/mL. Also, in data set [4] (iv 5 mg/kg, read-out: Cl—obs iv (clearance rate) (converted)), the clearance was 18 mL/min/kg. Further, in data set [4] (iv 5 mg/kg, read-out: Vss iv (distribution volume)), the Vd came to 2.41 L/kg. Also, the half-life in data set [4] (iv 5 mg/kg, read-out: tz1/2 iv (terminal half-life) (converted)) was 1.65 h; in data set [4] (po 10 mg/kg, read-out: tz1/2 po (terminal half-life) (converted)), 3.63 h. In addition, the bioavailability in data set [4] (po 10 mg/kg vs iv 5 mg/kg, read-out: F% (absolute bioavailability)) came out at 68.4%. Further, in data set [4] (po 10 mg/kg, median, read-out: Tmax po (time to peak plasma concentration)), the Tmax came to 0.25 h. For the same molecule, in data set [4] (po 10 mg/kg, read-out: Cmax po (peak concentration)), the Cmax turned out to be 1720 ng/mL. Besides, on THP-1 cell NLRP3, the IC50 was 2.4 nM.
